Patent US10835493B2, “Platelet-like proteo-microparticles and method of using such in drug delivery” (Academia Sinica, priority 2015, dated 2020)

Legend:
[1] = tested on: murine model of non-reperfused MI; test: Echocardiographic assessment of cardiac function in murine model of MI; type: in vivo, mouse; conditions: 28 days post MI
Protocol: FIGS. 7A-7D show echocardiographic assessments of cardiac function and blood chemistry analysis of a murine model of MI injury after PLP−CoPP treatments. […] Treatments were then given every 5 days until day 28, at which point the cardiac function of the mice was assessed by echocardiography (n=8) (FIG. 7B); LVEF, left ventricular ejection fraction; FS, fraction shortening; LVEDV, left ventricular end-diastolic volume; LVESV, left ventricular end-systolic volume; IVSd, interventricular septal thickness at diastole; IVSs, interventricular septal thickness at systole. The blood of the mice was analyzed for biomarkers to assess liver function (FIG. 7C), renal function (FIG. 7D), and cardiac function (FIG. 7E); AST, aspartate aminotransferase; ALT, alanine aminotransferase; TBIL, total bilirubin; BUN, blood urea nitrogen; CRE, creatinine; CKMB, creatine kinase MB, *, P<0.05, ***, P<0.001. […]
The cardiac function in murine models of both I/R and MI was assessed by using a 30-MHz probe (Vevo770; Visual Sonics, Toronto, ON, Canada), following the methods published in Chen et al. ((2015), Stem Cells Trans Med 4:269-275). […] The left ventricular end-diastolic diameter (LVEDD) and end-systolic diameter (LVESD) were measured perpendicular to the long axis of the ventricle at the location of the papillary muscle insertion site. […]

[2] = tested on: HO-1 expression in RAW264.7 cells; test: CoPP-induced HO-1 expression in RAW264.7 cells (western blotting); type: cell-based, murine; conditions: 4 hours exposure then overnight
Protocol: (§1) FIGS. 10A-10C show in vitro analysis of CoPP-induced expression of HO-1. FIG. 10A is a schematic diagram showing the relationship between CoPP, HO-1 and bilirubin. […] The cells were then placed back in a 37° C. incubator overnight before subjecting to western blotting (FIG. 10B). FIG. 10C presents the specific activity of the induced HO-1 in every treated sample, in catalyzing heme into bilirubin (n=6). NT; not treated, CoPP; free CoPP, Lipo+CoPP; liposome-encapsulated CoPP, PLP+CoPP; PLP-encapsulated CoPP. *, P<0.05, ***, P<0.001.
(§2) Samples were separated on 4-12% SDS-polyacrylamide gels (BioRad, US). After transfer to PVDF membrane, primary and secondary antibodies were applied, and the signals were detected with ECL-plus reagent. Primary antibodies against human GPIIb (GTX113758), human CD42c (GTX113355) and β-actin (GTX109639) were purchased from GeneTex (US). The anti-human CD62P (sc-19672) were from Santa Cruz (US). The rabbit polyclonal anti-HO-1 antibodies were made in-house according to Lin et al. ((2013), Arterioscler Thromb Vase Biol 33:785-794).
(§3) The capability of PLP−CoPP to induce HO-1 expression was first investigated in SVECs, RAW264.7 cells and MΦ (FIG. 10B). […] In addition, the enzyme activity of HO-1 in each corresponded to the expression level of enzyme in each of the CoPP-treated samples.

[3] = tested on: murine model of I/R injury; test: Infarct area in murine model of myocardial I/R injury (histology); type: in vivo, mouse; conditions: 5 mg/Kg i.v. at 72 hours of reperfusion then every 5 days; vs I/R+saline
From the text: (§4) FIGS. 6A-6D show therapeutic analysis of PLP−CoPP in a murine model of myocardial I/R injury. […] Subsequent injections were made every 5 days until day 28, at which point the mice were sacrificed. Subsequently, the heart tissues of the mice were sectioned and stained with Masson's trichrome (FIG. 6B). NT; not treated, CoPP; free CoPP, Lipo+CoPP; liposome-encapsulated CoPP, PLP+CoPP; PLP-encapsulated CoPP. Scale bar; 1 mm for the whole section and 100 μm for the higher magnified images.
Surgery for myocardial ischemia-reperfusion (I/R) was performed according to the protocol published in Ojha et al. ((2008), Am J Physiol Heart Circ Physiol 294:H2435-H2443). Briefly, the mice were ventilated on room air-isoflurane at an appropriate rate and tidal volume. The heart was accessed via left thoracotomy, in which the left lung was retracted to allow entrance to the pericardium. Subsequently, the left atrium was elevated to expose the left anterior descending coronary artery (LAD), and was isolated using a 7-0 silk suture on a taper needle. The suture was tightened over a piece of polyethylene-10 tubing to provide for reversible ischemia via the occlusion of the coronary artery. Ischemia was allowed to continue for 45 minutes after occlusion. After 45 minutes, the suture was released to allow for reperfusion of the injured myocardium. […]

I/R injured hearts = test: PCR of HO-1 and pro-inflammatory genes in I/R injured hearts; type: in vivo, mouse; conditions: i.v. at 72 hours of reperfusion
From the text: as §4
Total RNA was isolated from a whole heart using TRI Reagent (1 mL/whole heart). Subsequently, 1 μg of RNA was transcribed info cDNA using a random primer mixer (ProtoScript M-MuLV First Strand cDNA synthesis kit, New England BioLabs) and amplified during 35 cycles by PCR, utilizing specific primers (Table 1). The reactants were cycled at 95° C. for 1 min, 58° C. for 1 min, and 72° C. for 1.5 min to enable denaturation, annealing, and extension, respectively. PCR products were then separated on 1% (w/v) agarose gel at 60 V for 1 hour in TBE buffer (80 mM Tris base, 80 mM boric acid, and 2 mM EDTA, pH 8). The gels were stained with Health View Nucleic Acid Stain (Genomics, Taipei, Taiwan) for 30 minutes and then visualized under UV light.

HO-1 expression in SVECs = test: CoPP-induced HO-1 expression in SVECs (western blotting); type: cell-based, murine; conditions: 4 hours exposure then overnight, compared to β-actin
Protocol: as §1, §2, §3

murine model of MI = test: Blood chemistry (serum) analysis in murine model of MI; type: in vivo, mouse; conditions: end of 28-day treatment
Protocol: FIGS. 7A-7D show echocardiographic assessments of cardiac function and blood chemistry analysis of a murine model of MI injury after PLP−CoPP treatments. […] Treatments were then given every 5 days until day 28, at which point the cardiac function of the mice was assessed by echocardiography (n=8) (FIG. 7B); LVEF, left ventricular ejection fraction; FS, fraction shortening; LVEDV, left ventricular end-diastolic volume; LVESV, left ventricular end-systolic volume; IVSd, interventricular septal thickness at diastole; IVSs, interventricular septal thickness at systole. The blood of the mice was analyzed for biomarkers to assess liver function (FIG. 7C), renal function (FIG. 7D), and cardiac function (FIG. 7E); AST, aspartate aminotransferase; ALT, alanine aminotransferase; TBIL, total bilirubin; BUN, blood urea nitrogen; CRE, creatinine; CKMB, creatine kinase MB, *, P<0.05, ***, P<0.001.
All blood tests were performed by independent staff at the Taiwan Mouse Clinic, Academia Sinica, Taiwan. Male, BALB/c mice, approximately 56 weeks old, were used for all analyses (n=5 per group).
Levels of aspartate transaminase (AST), alanine transaminase (ALT), and total bilirubin in the serum were the biomarkers used to evaluate the hepatotoxicity of CoPP (FIG. 7C). […] Similar results were also seen in the measured serum level of blood urine nitrogen (BUN) and creatinine (CRE), which are biomarkers for renal toxicity (FIG. 7D).

SMILES: C=CC1=C(C)c2cc3[n-]c(cc4nc(cc5[n-]c(cc1n2)c(C)c5CCC(=O)[O-])C(CCC(=O)[O-])=C4C)c(C)c3C=C.[Co+2].[H+].[H+] [CoPP, cobalt protoporphyrin]
- left ventricular ejection fraction (LVEF, %) ([1]; 5 mg/Kg i.v. from 3 days post-infarction every 5 days): No significant difference
- LVEDV and LVESV [1]: significantly better than the other treatment groups
- HO-1 expression [2]: induced strong HO-1 expression
- infarct area of the heart [3]: significant reduction
- pro-inflammatory genes TNFα, MCP-1, IL6 and IL1β in the hearts (I/R injured hearts): downregulated
- expression of the HO-1 gene (HMXO1) in the hearts (I/R injured hearts; vs saline and Lipo−CoPP): upregulated
- HO-1 expression (HO-1 expression in SVECs): induction of some expression
- serum ALT (murine model of MI): significantly higher level
- serum BUN and CRE (murine model of MI): significantly higher than the other treatment groups
- serum CKMB (murine model of MI): significantly lower CKMB levels
